Where two headings read alike, the source gives them in different places.

In one data set the test system is Acanthocheilonema viteae. Set-up: method as in Nogami 1987 (Ref. 13). The settings on record: 50L3 (SC), hamster, SC 10mg/kg 5 cons. days, 12 weeks p.i, necropsy 5 weeks p.t.; ref Nogami 1987 (Ref. 13); cited from earlier work.
For the next data set, the system named is Breinlia booliati. Set-up: method as in Mak 1981 (Ref. 7). The note with it: 100L3 (SC), rats, SC 3mg/kg 5 cons. days, patent phase, necropsy 4 weeks p.t.; ref Mak 1981 (Ref. 7); cited from earlier work.
On the set-up of data set [1]: method as in PMID 1687815. The settings on record: rat/sheep/cattle, published data; cited from earlier work.
On the set-up of data set [2]: method as in PMID 25701764. The note with it: rat, published data; cited from earlier work.
A further data set deals with AMES bacterial assay. The settings on record: in vitro; cited from earlier work.
The subject of data set [3] is Litomosoides sigmodontis adult worms. Briefly: L. sigmodontis-infected mice, adult worm burden. It counts as in vivo. On the procedure: (Whatman 903 Protein […], Sigma-Aldrich, Germany). […] Mice were sacrificed at 75-78 dpi. […] The mice were anesthetized then sacrificed by bleeding (at MNHN) or by an overdose of isoflurane (at IMMIP). At the MNHN, the pleural cavity was washed 10 times with 1 ml of cold phosphate buffered saline (PBS) to collect filariae as previously described. At the IMMIP, the pleural cavity was washed with 1 ml of PBS. In both laboratories the remaining worms were isolated using forceps. The recovered L. sigmodontis adult worms were counted and analyzed by light microscopy to identify males and females.

A further data set has as its system L. loa microfilariae. Also noted: method as in PMID 30926803. The note with it: L. loa mouse model; cited from earlier work.
For data set [4], the system named is Onchocerca volvulus pre-adult L5 worms. Kind of data set: O. volvulus pre-adult (L5) worm motility assay. The settings on record: read-out: IC50 of motility inhibition. On the procedure: Cryopreserved O. volvulus L3 were thawed, washed and co-cultured with normal human PBMC as previously described. […] The L4 larvae were then transferred into a transwell (Sigma #CLS3472), ~10 L4 per transwell within a 24-well plate and over a monolayer comprised of Human Umbilical Vein Endothelial Cells (HUVEC; Lonza Inc., Allendale, NJ) seeded at a density of 1 x 10^4 cells per well. The larvae were cultured for 80 days using L4 complete media: 1:1 NCTC-109: MEM-alpha and EBM-2 (Clonetics EBM-2 Lonza# CC-3156) at a 60:40 ratio. […] Medium was exchanged 3 times a week and fresh HUVEC monolayers were prepared weekly. A week prior to performing the drug screening assay, the L4 day 80 that has molted to pre-adult worms, L5, were transferred from the transwells into a small petri dish containing fresh complete media. 7–10 L5 worms were retrieved from the petri dish and placed in new transwells containing a freshly prepared HUVEC monolayer. […] After 14 days of treatment, the drug containing media was replaced by complete media without drug. Continuing this assay for a further 19 days, the worms were supplied with fresh media every 2–3 days and the weekly use of fresh HUVEC monolayers. […] All drug concentrations were tested in duplicate. […] IC50 values were calculated using Graph Pad Prism v8.3.

Details of data set [5]: method as in PMID 30745383. The note with it: daily doses up to 60 mg/kg; cited from earlier work.
A further data set relates to mammalian tubulin. Set-up: method as in PMID 6712717, PMID 1554382. The settings on record: cited from earlier work.
Where [6] appears, read: mice, PO 2 x 2.5 mg/kg for 1 day, start 33 dpi, 75 dpi.
The mark [7] stands for this setting: mice, PO 2 x 2.5 mg/kg for 5 days, start 33 dpi, 75 dpi.
Where [8] appears, read: mice, PO 2 x 2.5 mg/kg for 10 days, start 33 dpi, 75 dpi.
The mark [9] stands for this setting: mice, PO BID 2 x 1 mg/kg for 5 days from 35 dpi, necropsy 75 dpi.
Where [10] appears, read: mice, PO BID 2 x 5 mg/kg for 5 days from 35 dpi, necropsy 75 dpi.

On to `COC(=O)Nc1nc2cc(C(=O)c3ccc(F)cc3)ccc2[nH]1` [flubendazole], for which the results for the “Reduction of worm burden” value in the data set with Acanthocheilonema viteae and with Breinlia booliati were 68% and 100%, respectively.

A word on the IC50: it is the concentration that gives 50% inhibition. Consider `COC(=O)Nc1nc2ccc([S+]([O-])c3ccccc3)cc2[nH]1` (centres unmarked) [oxfendazole], for which the “Bioavailability (F)” value is more than 50% in data set [1] and approximately 35% in [2]. In addition, the “toxicity in AMES bacterial assay” value with AMES bacterial assay is recorded as “did not exhibit toxicity”. The minimal efficacious concentration result in data set [3] (based on subcutaneous treatment at 25 mg/kg in mice, pharmacokinetic analysis) is “approximately 100 ng/ml”. In addition, the macrofilaricidal efficacy result is “above 85%” in data set [3] (mice, BID oral 2 x 5.0 mg/kg for 10 consecutive days) and “above 85%” in data set [3] (mice, BID oral 2 x 12.5 mg/kg for 5 days). Besides, the median adult worms is reported as 20 worms in [3] (setting [6]); 6.5 worms in data set [3] (setting [7]); 1 worm in data set [3] (setting [8]); 5 adult worms in [3] (setting [9]); 0 adult worms in data set [3] (setting [10]). Further, the “range of adult worms” value is listed as 1–47 worms in data set [3] (setting [6]); 1–16 worms in data set [3] (setting [7]); 0–4 worms in data set [3] (setting [8]); 1–12 worms in [3] (setting [9]); 0–5 worms in [3] (setting [10]). Moreover, the “reduction of the adult worm burden” value in [3] (setting [6]) is given as 0%; in data set [3] (setting [7]), 23.5%; in data set [3] (setting [8]) it was 87.2%. Also, the “adult worm burden reduction” value worked out at 16.7% in data set [3] (setting [9]); 100% in [3] (setting [10]); 100% in data set [3] (mice, PO BID 2 x 25 mg/kg for 5 days from 35 dpi, necropsy 75 dpi). Besides, the adult worm reduction in data set [3] (mice, PO BID 2 x 12.5 mg/kg for 5 days from 35 dpi, necropsy 78 dpi) amounted to 100%. Moreover, the macrofilaricidal outcome is given as “no significant reduction of the worm burden” in [3] (mice, SC 1 mg/kg QD for 5 days from 35 dpi, necropsy 78 dpi); “sterile cure was achieved in all mice except one” in data set [3] (mice, SC 5 mg/kg QD for 5 days from 35 dpi, necropsy 78 dpi); “Sterile cure was achieved” in [3] (mice, SC 25 mg/kg QD for 5 days from 35 dpi, necropsy 78 dpi); “did not lead to a significant reduction” in data set [3] (mice, single oral BID dosing, doses up to 125 mg/kg, start 33 dpi, 75 dpi). Also, the “microfilaricidal efficacy against L. loa” value in the data set with L. loa microfilariae is on record as “lacks such a microfilaricidal efficacy”. In addition, the IC50 worked out at 7590 nM in data set [4] (336 h, day 14 (14 days drug exposure)); 28.6 nM in data set [4] (day 19 of culture (14 days drug, 5 days without drug)); 10.2 nM in data set [4] (day 33 of culture (14 days drug, 19 days without drug)). In data set [5], the “tolerability in healthy volunteers” value is given as “acceptable side effects”. For the same compound, the “inhibition of mammalian tubulin polymerization” value in the data set on mammalian tubulin was “poor inhibition”.

These data come from article PMC7365463, “Oxfendazole mediates macrofilaricidal efficacy against the filarial nematode Litomosoides sigmodontis in vivo and inhibits Onchocerca spec. motility in vitro” (PLoS Neglected Tropical Diseases, 2020).
